This passage reports IC50 results from patent US9763942B2, “Serine/threonine kinase inhibitors” (Array BioPharma Inc., priority 2013, dated 2017).

The structures appear in SMILES notation. Where two headings read alike, the source gives them in different places. Some results are limits rather than exact numbers.

By IC50 is commonly meant the concentration that gives 50% inhibition.

For experiment [1], the target named is T1, human ERK-2 (Mitogen Activated Kinase 1) (Homo sapiens, UniProt P28482).
T1 construct: n-terminal 6-His fusion protein in E. coli and corresponding to aa 8-360; 6-His (N); made in house; host or cells: E. coli
T1 sequence (P28482 8-360): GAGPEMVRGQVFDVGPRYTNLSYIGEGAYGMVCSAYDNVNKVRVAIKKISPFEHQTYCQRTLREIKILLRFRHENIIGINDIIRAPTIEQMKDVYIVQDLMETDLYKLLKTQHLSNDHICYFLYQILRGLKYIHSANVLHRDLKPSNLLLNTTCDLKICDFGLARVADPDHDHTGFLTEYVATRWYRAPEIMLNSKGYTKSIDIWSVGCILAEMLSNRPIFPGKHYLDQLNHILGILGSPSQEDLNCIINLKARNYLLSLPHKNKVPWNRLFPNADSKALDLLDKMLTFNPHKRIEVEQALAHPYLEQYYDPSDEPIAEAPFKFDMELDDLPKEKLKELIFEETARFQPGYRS
The experiment in a line: ERK-2 Enzymatic Assay. In kind it is biochemical. An excerpt: Table 1 contains representative data for Examples disclosed herein.

Experiment [2] deals with PMA-stimulated P90RSK(Ser380) phosphorylation in HepG2 cells. The experiment is described as follows: Cellular P90RSK(Ser380) Phosphorylation Assay. Particulars: Homo sapiens, 1.5 hours compound incubation, PMA 100 ng/mL 30 minutes, pP90RSK(Ser380) signal normalized to GAPDH, single assay or mean of multiple assays, read-out: Biological Example 2 IC50. In kind it is cell-based. As to the method: Inhibition of PMA-stimulated P90RSK(Ser380) phosphorylation was determined by the following in vitro cellular mechanistic assay, which comprises incubating cells with a compound for 1.5 hours and quantifying fluorescent pP90RSK(Ser380) signal on fixed cells and normalizing to GAPDH signal.
HepG2 cells were obtained from ATCC and grown in DMEM supplemented with 10% fetal bovine serum. Cells were plated in 96-well plates at 35,000 cells/well and allowed to attach overnight at 37° C./5% CO2. Diluted compounds were then added at a final concentration of 0.5% DMSO. After 1.5 hours compound incubation, cells were stimulated with the addition of phorbol 12-myristate 13-acetate (“PMA”) at a final concentration of 100 ng/mL; the PMA stimulation was a 30-minute incubation at 37° C./5% CO2. After the 30-minute PMA stimulation, cells were washed with phosphate buffered saline (“PBS”) and fixed in 3.7% formaldehyde in PBS at room temperature for 15-20 minutes. This was followed by another wash in PBS and then permeabilization in 100% MeOH at room temperature for 10-15 minutes. Following the permeabilization incubation, cells were washed in PBS/0.05% Tween-20, followed by a block in Odyssey blocking buffer (LI-COR Biosciences) for at least 1 hour. Antibodies to phosphorylated P90RSK(Ser380) (Cell Signaling #9335, rabbit monoclonal) and GAPDH (Fitzgerald 10R-G109a, mouse monoclonal) were added to the cells and incubated overnight at 4° C. pP90RSK(Ser380) antibody was used at a 1:250 dilution; GAPDH was used at a 1:10,000 dilution. After washing with PBS/0.05% Tween-20, the cells were incubated with fluorescently-labeled secondary antibodies (Anti-rabbit-Alexa Flour680, Invitrogen Cat#A21109; Anti-mouse-IRDye800CW, Rockland Inc. Cat#610-131-121) for 1 hour. Both secondary antibodies were used at a 1:1000 dilution. Cells were then washed and analyzed for fluorescence at both wavelengths using the Odyssey Infrared Imaging System (LI-COR Biosciences). Phosphorylated P90RSK(Ser380) signal was normalized to GAPDH signal.

Where [3] appears, read: 5 nM ERK-2 enzyme, 25 μM ATP (observed Km), Omnia peptide S/T17, single assay or mean of multiple assays, read-out: Biological Example 1 IC50.
Where [4] appears, read: ERK-2 enzymatic assay, read-out: IC50.

Take `Cn1nccc1Nc1nccc(-c2ccc3c(c2)nnn3Cc2cccc(F)c2F)n1` [Example 1, 4-(1-(2,3-difluorobenzyl)-1H-benzo[1,2,3]triazol-5-yl)-N-(1-methyl-1H-pyrazol-5-yl)pyrimidin-2-amine]: the IC50 in experiment [1] (setting [3]) is 0.0009 µM; in experiment [1] (setting [4]), less than 0.1 µM; in experiment [2], 0.0227 µM.
Consider `Cn1nccc1Nc1nccc(-c2ccc3c(c2)nnn3CCn2cc(Cl)cn2)n1` [Example 4, 4-(1-(2-(4-chloro-1H-pyrazol-1-yl)ethyl)-1H-benzo[d][1,2,3]triazol-5-yl)-N-(1-methyl-1H-pyrazol-5-yl)pyrimidin-2-amine], for which the IC50 in experiment [1] (setting [3]) is 0.0019 µM; in experiment [1] (setting [4]), less than 0.1 µM; in experiment [2] it was 0.0032 µM.
As to `COc1ccc(Cn2nnc3cc(-c4ccnc(Nc5ccnn5C)n4)cnc32)cc1F` [Example 5, 4-(3-(3-fluoro-4-methoxybenzyl)-3H-[1,2,3]triazolo[4,5-b]pyridin-6-yl)-N-(1-methyl-1H-pyrazol-5-yl)pyrimidin-2-amine], the IC50 in experiment [1] (setting [3]) is 0.0025 µM; in experiment [1] (setting [4]), less than 0.1 µM; in experiment [2], 0.0168 µM.
In the case of `COc1ccc(Cn2nnc3cc(-c4ccnc(N[C@@H]5CCOC[C@H]5F)n4)ccc32)cc1F` [Example 6, 4-(1-(3-fluoro-4-methoxybenzyl)-1H-benzoyl[d][1,2,3]triazol-5-yl)-N-((3S,4R)-3-fluorotetrahydro-2H-pyran-4-yl)pyrimidin-2-amine], the IC50 in experiment [1] (setting [3]) was 0.0026 µM; in experiment [1] (setting [4]), less than 0.1 µM; in experiment [2], 0.0582 µM.
For `COc1ccc(Cn2nnc3cc(-c4ccnc(Nc5cn(C)nc5C)n4)ccc32)cc1F` [Example 8, N-(1,3-dimethyl-1H-pyrazol-4-yl)-4-(1-(3-fluoro-4-methoxybenzyl)-1H-benzo[d][1,2,3]triazol-5-yl)pyrimidin-2-amine], the IC50 was 0.0029 µM in experiment [1] (setting [3]), less than 0.1 µM in experiment [1] (setting [4]) and 0.0568 µM in experiment [2].
As for `Cn1nccc1Nc1nccc(-c2ccc3c(c2)nnn3CC2CCC(F)(F)CC2)n1` [Example 33, 4-(1-((4,4-difluorocyclohexyl)methyl)-1H-benzo[d][1,2,3]triazol-5-yl)-N-(1-methyl-1H-pyrazol-5-yl)pyrimidin-2-amine], the IC50 in experiment [1] (setting [3]) is 0.004 µM; in experiment [1] (setting [4]), less than 0.1 µM; in experiment [2] it was 0.0633 µM.
In the same order, the values of `CCOCCCn1nnc2cc(-c3ccnc(Nc4ccnn4C)n3)ccc21` [Example 43, 4-(1-(3-ethoxypropyl)-1H-benzo[d][1,2,3]triazol-5-yl)-N-(1-methyl-1H-pyrazol-5-yl)pyrimidin-2-amine] are 0.0057 µM, less than 0.1 µM and 0.0685 µM.
`COc1ccc(Cn2nnc3cc(-c4ccnc(NC5CCOCC5)n4)ccc32)cc1F` [Example 110, 4-(1-(3-fluoro-4-methoxybenzyl)-1H-benzo[d][1,2,3]triazol-5-yl)-N-(tetrahydro-2H-pyran-4-yl)pyrimidin-2-amine]: the IC50 in experiment [1] (setting [4]) is less than 0.1 µM.
Still for that read-out and setting: the figure for `Fc1ccc(Cn2nnc3cc(-c4ccnc(NC5CCOCC5)n4)ccc32)cc1` [Example 111, 4-(1-(4-fluorobenzyl)-1H-benzo[d][1,2,3]triazol-5-yl)-N-(tetrahydro-2H-pyran-4-yl)pyrimidin-2-amine] is less than 0.1 µM; for `Clc1ccc(Cn2nnc3cc(-c4ccnc(NC5CCOCC5)n4)ccc32)cc1` [Example 112] it is less than 0.1 µM; for `COc1ccc(Cn2nnc3cc(-c4ccnc(Nc5ccnn5C)n4)ccc32)cc1F` [Example 113, 4-(1-(3-fluoro-4-methoxybenzyl)-1H-benzol[d][1,2,3]triazol-5-yl)-N-(1-methyl-1H-pyrazol-5-yl)pyrimidin-2-amine] it is less than 0.1 µM.
`CC(C)Cn1nnc2cc(-c3ccnc(Nc4ccnn4C)n3)cnc21` [Example 114, 4-(3-isobutyl-3H-[1,2,3]triazolo[4,5-b]pyridin-6-yl)-N-(1-methyl-1H-pyrazol-5-yl)pyrimidin-2-amine]: the IC50 in experiment [1] (setting [4]) is less than 0.1 µM.
Consider `Cn1nccc1Nc1cc(-c2cnc3c(c2)nnn3Cc2cccc(Cl)c2)ccn1` [Example 115, 4-(3-(3-chlorobenzyl)-3H-[1,2,3]triazolo[4,5-b]pyridin-6-yl)-N-(1-methyl-1H-pyrazol-5-yl)pyridin-2-amine], for which the IC50 in experiment [1] (setting [4]) was less than 0.1 µM.
Take `Cn1nccc1Nc1nccc(-c2cnc3c(c2)nnn3Cc2ccc(Cl)cc2)n1` [Example 116, 4-(3-(4-chlorobenzyl)-3H-[1,2,3]triazolo[4,5-b]pyridin-6-yl)-N-(1-methyl-1H-pyrazol-5-yl)pyrimidin-2-amine]: in experiment [1] (setting [4]), the IC50 is less than 0.1 µM.
Still for that read-out and setting: as for `Cn1nccc1Nc1nccc(-c2ccc3c(c2)nnn3Cc2cccc(Cl)c2)n1` [Example 117, 4-(1-(3-chlorobenzyl)-1H-benzo[d][1,2,3]triazol-5-yl)-N(1-methyl-1H-pyrazol-5-yl)pyrimidin-2-amine], the figure is less than 0.1 µM; as for `Cn1nccc1Nc1nccc(-c2cnc3c(c2)nnn3CCc2cccc(Cl)c2)n1` [Example 118, 4-(3-(3-chlorophenethyl)-3H-[1,2,3]triazolo[4,5-b]pyridin-6-yl)-N-(1-methyl-1H-pyrazol-5-yl)pyrimidin-2-amine], less than 0.1 µM.
Consider `Cn1nccc1Nc1nccc(-c2cnc3c(c2)nnn3Cc2ccc(Cl)c(F)c2)n1` [Example 119, 4-(3-(4-chloro-3-fluorobenzyl)-3H-(1,2,3]triazolo[4,5-b]pyridin-6-yl)-N-(1-methyl-1H-pyrazol-5-yl)pyrimidin-2-amine], for which the IC50 in experiment [1] (setting [4]) is less than 0.1 µM.
Consider `Cn1nccc1Nc1nccc(-c2ccc3c(c2)nnn3Cc2cccc(F)c2)n1` [Example 120, 4-(1-(3-fluorobenzyl)-1H-benzo[d][1,2,3]triazol-5-yl)-N-(1-methyl-1H-pyrazol-5-yl)pyrimidin-2-amine], for which the IC50 in experiment [1] (setting [4]) was less than 0.1 µM.
Still for that read-out and setting: the figure for `Cn1nccc1Nc1nccc(-c2cnc3c(c2)nnn3Cc2ccc(F)c(Cl)c2)n1` [Example 121, 4-(3-(3-chloro-4-fluorobenzyl)-3H-[1,2,3]triazolo[4,5-b]pyridin-6-yl)-N-(1-methyl-1H-pyrazol-5-yl)pyrimidin-2-amine] is less than 0.1 µM; for `Cn1nccc1Nc1nccc(-c2ccc3c(c2)nnn3Cc2ccccc2C(F)(F)F)n1` [Example 122] it is less than 0.1 µM.
Still for that read-out and setting: as for `Cn1nccc1Nc1nccc(-c2ccc3c(c2)nnn3Cc2ccc(F)cc2F)n1` [Example 123], the figure is less than 0.1 µM; as for `Cn1nccc1Nc1nccc(-c2cnc3c(c2)nnn3Cc2cccc(Cl)c2)n1` [Example 124, 4-(3-(3-chlorobenzyl)-3H-[1,2,3]triazolo[4,5-b]pyridin-6-yl)-N-(1-methyl-1H-pyrazol-5-yl)pyrimidin-2-amine], less than 0.1 µM.
The same measure, in the same setting: as for `Cn1nccc1Nc1nccc(-c2ccc3c(c2)nnn3Cc2ccc(F)c(Cl)c2)n1` [Example 125, 4-(1-(3-chloro-4-fluorobenzyl)-1H-benzo[d][1,2,3]triazol-5-yl)-N-(1-methyl-1H-pyrazol-5-yl)pyrimidin-2-amine], the figure is less than 0.1 µM.
`COc1ncccc1Cn1nnc2cc(-c3ccnc(Nc4ccnn4C)n3)cnc21` [Example 126, 4-(3-((2-methoxypyridin-3-yl)methyl)-3H-[1,2,3]triazolo[4,5-b]pyridin-6-yl)-N-(1-methyl-1H-pyrazol-5-yl)pyrimidin-2-amine]: the IC50 in experiment [1] (setting [4]) is less than 0.1 µM.
